# According to patent US8987243B2, “11-(2-pyrrolidin-1-yl-ethoxy)-14,19-dioxa-5,7,26-triaza-tetracyclo[19.3.1.1(2,6).1(8,12)]heptacosa-maleate salt” (CTI Biopharma Corp., priority 2008, dated 2015):
# Counter-ions that a name gives are not always drawn.
# Experiments:
# Assay type in all cases: physicochemical
# [1] = Gravimetric Vapour Sorption (GVS), with XRPD post GVS; conditions: for solid form / crystalline pattern by XRPD post GVS: compared with starting material
# [2] = Thermal gravimetric analysis (TGA); conditions: for water lost in the first phase of the TGA: hydrochloride
# Procedure: The samples of both hydrochloride (comparative) and maleate salts were subjected to thermal gravimetric analysis and differential scanning calorimetry under the following conditions. DSC data were collected on a TA Instruments Q2000 equipped with a 50 position auto-sampler. The instrument was calibrated for energy and temperature calibration using certified indium. Typically 0.5-3 mg of each sample, in a pin-holed aluminium pan, was heated at 10° C.·min^−1 from 25° C. to 270° C.
# TGA data were collected on a TA Instruments Q500 TGA, equipped with a 16 position auto-sampler. The instrument was temperature calibrated using certified Alumel. Typically 5-30 mg of each sample was loaded onto a pre-tared platinum crucible and aluminium DSC pan, and was heated at 10° C.·min^−1 from ambient temperature to 300° C. A nitrogen purge at 60 ml·min^−1 was maintained over the sample. The instrument control software was Thermal Advantage v4.6.6 and the data were analysed using Universal Analysis v4.3A. Alternatively, TGA data were collected on a Mettler TGA/SDTA 851e equipped with a 34 position auto-sampler. The instrument was temperature calibrated using certified indium. Typically 5-30 mg of each sample was loaded onto a pre-weighed aluminium crucible and was heated at 10° C.·min^−1 from ambient temperature to 300° C. A nitrogen purge at 50 ml·min^−1 was maintained over the sample. The instrument control and data analysis software was STARe v9.01.
# [3] = Stress tests: storage at elevated temperature and humidity, analysed by XRPD
# Procedure: The group three material was stressed under conditions which might cause it to convert to group one material or, indeed, another hydrated or polymorphic form. Thus samples were stored at 40° C./75% RH and also at 60° C./96% RH and analysed at regular intervals by XRPD.
# The stability of the maleate salt form A material was tested in harsher conditions, when the samples were kept for a week in the humidity chamber at 60° C. and 96% RH.
# The samples of both hydrochloride (comparative) and maleate salts were subjected to X-ray diffraction to determine the characteristic X-ray diffraction pattern. The conditions used were as follows: X-Ray Powder Diffraction patterns were collected on a Siemens D5000 diffractometer using Cu Kα radiation (40 kV, 40 mA), θ-θ goniometer, divergence of V20 and receiving slits, a graphite secondary monochromator and a scintillation counter. The instrument is performance checked using a certified Corundum standard (NIST 1976).
# [4] = Variable temperature X-ray diffraction; conditions: variable temperature XRPD
# Procedure: Samples run under non-ambient conditions were mounted on a silicon wafer with heat-conducting compound. The sample was then heated to the appropriate temperature at ca. 10° C.·min^−1 and subsequently held isothermally for ca 2 minutes before data collection was initiated. In order to probe the stability of the samples of the maleate salts variable temperature X-ray diffraction was carried out. Thus, the salts were scanned under X-ray diffraction conditions at a series of temperatures and the characteristic peaks determined.
# [5] = Maturation studies in 27 solvents, solids analysed by XRPD; conditions: 4 h heat/cool cycles 50° C./r.t., 24 h
# Procedure: In order to determine the propensity of polymorphism for the maleate salt the material was maturated in 27 different solvents. A small amount of solid was slurried with the corresponding solvent (see Table 4 below) and stored in the incubator and subjected to 4 h-heat/cool cycles at 50° C./r.t. for 24 h. The solvents were then removed under vacuum, and the remaining solids analysed by XRPD.
smiles,measurement,setting,value
"C1=CCOCc2cc(ccc2OCCN2CCCC2)Nc2nccc(n2)-c2cccc(c2)COC1.Cl [Batch HCl 1, 11-(2-pyrrolidin-1-yl-ethoxy)-14,19-dioxa-5,7,26-triaza-tetracyclo[19.3.1.1(2,6).1(8,12)]heptacosa-1(25),2(26),3,5,8,10,12(27),16,21,23-decaene hydrochloride]",mass regained on going to 40% RH,"[1]; GVS, after dryness",2%
same,adsorption of water in the initial adsorption cycle,"[1]; GVS, at 90% RH",5.5%
same,total gain of mass,"[1]; GVS, whole experiment",2%
same,water content after the gain,"[1]; GVS, corresponds to a dihydrate",6.5%
same,mass lost on going from 90% RH to dryness,"[1]; GVS, hydrochloride",5%
same,"two stage weight loss, total","[2]; TGA, up to 100° C.",4.5%
"C1=CCOCc2cc(ccc2OCCN2CCCC2)Nc2nccc(n2)-c2cccc(c2)COC1.Cl [Batch HCl 2, 11-(2-pyrrolidin-1-yl-ethoxy)-14,19-dioxa-5,7,26-triaza-tetracyclo[19.3.1.1(2,6).1(8,12)]heptacosa-1(25),2(26),3,5,8,10,12(27),16,21,23-decaene hydrochloride]",water lost in the first phase of the TGA,[2]; TGA,5.6%
"C1=CCOCc2cc(ccc2OCCN2CCCC2)Nc2nccc(n2)-c2cccc(c2)COC1.Cl [Batch HCl 3, 11-(2-pyrrolidin-1-yl-ethoxy)-14,19-dioxa-5,7,26-triaza-tetracyclo[19.3.1.1(2,6).1(8,12)]heptacosa-1(25),2(26),3,5,8,10,12(27),16,21,23-decaene hydrochloride]",total weight lost in the TGA,[2]; TGA,3.4%
same,another loss,"[2]; TGA, at 165° C.",1.97%
same,water lost in the first phase of the TGA,[2]; TGA,1.5%
"C1=CCOCc2cc(ccc2OCCN2CCCC2)Nc2nccc(n2)-c2cccc(c2)COC1.Cl [Batch HCl 4, 11-(2-pyrrolidin-1-yl-ethoxy)-14,19-dioxa-5,7,26-triaza-tetracyclo[19.3.1.1(2,6).1(8,12)]heptacosa-1(25),2(26),3,5,8,10,12(27),16,21,23-decaene hydrochloride]",mass gained on going from 40% RH to 90% RH (water absorption),[1]; GVS,1.6%
same,mass lost on going from 90% RH to dryness,"[1]; GVS, hydrochloride",2.8%
same,solid form / crystalline pattern by XRPD post GVS,[1]; hydrochloride,unchanged
same,mass lost,"[2]; TGA, between ambient and 108° C.",6.5%
"C1=CCOCc2cc(ccc2OCCN2CCCC2)Nc2nccc(n2)-c2cccc(c2)COC1.Cl [Batch HCl 6, 11-(2-pyrrolidin-1-yl-ethoxy)-14,19-dioxa-5,7,26-triaza-tetracyclo[19.3.1.1(2,6).1(8,12)]heptacosa-1(25),2(26),3,5,8,10,12(27),16,21,23-decaene hydrochloride]",mass gained on going from 40% RH to 90% RH (water absorption),[1]; GVS,1.6%
same,mass lost on going from 90% RH to dryness,"[1]; GVS, hydrochloride",2.4%
same,solid form / crystalline pattern by XRPD post GVS,[1]; hydrochloride,unchanged
same,weight loss in the TGA,[2]; until degradation at around 240° C.,very little weight loss
same,solid form by XRPD after storage,"[3]; 40° C./75% RH, 0 hrs",Group three.
same,solid form by XRPD after storage,"[3]; 40° C./75% RH, 24 hrs",Group three.
same,solid form by XRPD after storage,"[3]; 40° C./75% RH, 48 hrs",Group three.
same,solid form by XRPD after storage,"[3]; 40° C./75% RH, 72 hrs",Group one.
same,solid form by XRPD after storage,"[3]; 60° C./96% RH, 0 hrs",Group three.
same,solid form by XRPD after storage,"[3]; 60° C./96% RH, 24 hrs",Group one.
"C1=C/COCc2cc(ccc2OCCN2CCCC2)Nc2nccc(n2)-c2cccc(c2)COC/1 [maleate salt, 11-(2-pyrrolidin-1-yl-ethoxy)-14,19-dioxa-5,7,26-triaza-tetracyclo[19.3.1.1(2,6).1(8,12)]heptacosa-1(25),2(26),3,5,8,10,12(27),16,21,23-decaene]",change of X-ray diffraction pattern with temperature,[4],no change
same,Solid Form after maturation,"[5]; 1,4-dioxane",Form A
same,Solid Form after maturation,[5]; 1-butanol,Form A
same,Solid Form after maturation,[5]; 1-pentanol,Form A
same,Solid Form after maturation,[5]; 1-propanol,Form A
same,Solid Form after maturation,[5]; 2-butanol,Form A
same,Solid Form after maturation,[5]; 2-methoxy ethanol,Form A
same,Solid Form after maturation,[5]; 3-methyl-1-butanol,Form A
same,"solid forms identified after maturation, all cases",[5]; 27 different solvents,only one solid form
same,Solid Form after maturation,[5]; Acetonitrile,Form A
same,Solid Form after maturation,[5]; Cyclohexane,Form A
same,Solid Form after maturation,[5]; DMSO,Form A
same,Solid Form after maturation,[5]; Dicloromethane,Form A
same,Solid Form after maturation,[5]; Ethanol,Form A
same,Solid Form after maturation,[5]; Ethyl acetate,Form A
same,Solid Form after maturation,[5]; Heptane,Form A
same,Solid Form after maturation,[5]; IPA,Form A
same,Solid Form after maturation,[5]; Isobutyl acetate,Form A
same,Solid Form after maturation,[5]; Isopropyl acetate,Form A
same,Solid Form after maturation,[5]; Methyl isobutyl ketone,Form A
same,Solid Form after maturation,[5]; Methylethyl ketone,Form A
same,Solid Form after maturation,[5]; Nitromethane,Form A
same,Solid Form after maturation,[5]; Propyl acetate,Form A
same,Solid Form after maturation,[5]; TBME,Form A
same,Solid Form after maturation,[5]; Tetrahydrofuran,Form A
same,Solid Form after maturation,[5]; Toluene,Form A
same,Solid Form after maturation,[5]; Water,Form A
same,Solid Form after maturation,[5]; acetone,Form A
same,Solid Form after maturation,[5]; methanol,Form A
same,hygroscopicity,[1]; GVS,low hygroscopicity
same,weight taken up in water,"[1]; GVS, between 0 and 90% RH",less than 0.6%
same,solid form / crystalline pattern by XRPD post GVS,[1],No changes
same,weight loss in the TGA,[2]; until the salt melts with decomposition at 200° C.,no weight loss
same,changes in the crystalline pattern after storage,[3]; a week in the humidity chamber at 60° C. and 96% RH,no changes
